Test results reported in patent EP4703354A1, “COMPOUND AS CCR6 ANTAGONIST, AND PHARMACEUTICAL COMPOSITION AND USE THEREOF” (Wuhan Createrna Science and Technology Co.,Ltd., priority 2023, dated 2024).
pIC50: −log10 of the molar value. Where two headings read alike, the source gives them in different places.

Legend:
[1] = in vitro liver microsome metabolic stability, rat; type: in vitro ADME; settings: Rat liver microsomes, 37°C
Method in brief: (§1)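 Test compound at 1 µM final (100 µM working solution diluted 1:100) incubated at 37°C with liver microsomes in pH 7.4 phosphate buffer with NADP/G6P/G6PDH/MgCl2 regenerating system; sampled 0–30 min, LC-MS/MS vs internal standard. T1/2 = 0.693/k from remaining-fraction decay.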

[2] = in vitro liver microsome metabolic stability, beagle dog; type: in vitro ADME; settings: Beagle dog liver microsomes, 37°C
Method in brief: as §1

[3] = in vitro liver microsome metabolic stability, mouse; type: in vitro ADME; settings: Mouse liver microsomes, 37°C
Protocol: Preparation of working solutions for test compounds and standards: An appropriate amount of the compound was accurately weighed and dissolved in a corresponding volume of suitable solvent to prepare 1 mM stock solutions of the test compounds and standards. The stock solutions were then diluted with appropriate solvent to obtain 100 µM working solutions of the test compounds, ensuring that the DMSO content in the working solutions remained below 10%.
The internal standard compound testosterone (or tolbutamide) and its corresponding solvent, internal standard concentration (200 ng/mL), were selected based on the properties of the test compound.
• Solution A: 0.1 mol/L K2HPO4 (2.28 g K2HPO4·3H2O was dissolved in 100 mL of double-distilled water); • Solution B: 0.1 mol/L KH2PO4 (1.36 g KH2PO4 was dissolved in 100 mL of double-distilled water); • 80.2 mL of Solution A and 19.8 mL of Solution B were mixed thoroughly, and the pH was adjusted to 7.4.
37.5 mg of glycine was weighed, dissolved in 100 mL of ultrapure water, and adjusted to pH 8.0 with NaOH.
1.25 mg of glucose-6-phosphate dehydrogenase (400 U/mg) was weighed (the specific amount weighed was calculated based on the activity of the purchased glucose-6-phosphate dehydrogenase), dissolved in 1 mL of glycine buffer to a concentration of 500 U/mL, aliquoted into 20 µL per tube, and stored at -20°C for future use.
7.83 mg of NADP, 0.06 mL of D-glucose-6-phosphate (260 mg/mL), and 10.17 mg of MgCl2·6H2O were precisely weighed.
The mixture was dissolved in 1 mL of pure water. The cofactor ratio composition: NADP 10 mM, D-glucose-6-phosphate 60 mM, MgCl2·6H2O 50 mM.
The reaction system (taking a 500 µL system as an example) was composed of the following solution ratios: 416.5 µL phosphate buffer, 5 µL compound working solution, 25 µL liver microsomes, 3.5 µL glucose-6-phosphate dehydrogenase, and 50 µL cofactor solution. The total incubation volume could be adjusted according to experimental requirements.
416.5 µL of phosphate buffer was taken, 25 µL of liver microsomes, 3.5 µL of glucose-6-phosphate dehydrogenase, and 50 µL of cofactor solution were added, vortexed twice to mix, and preincubated in a 37°C water bath for 5 minutes. Then, 5 µL of the test compound working solution was added, vortexed twice to mix, each time for 2-3 seconds, and placed in a 37°C water bath to initiate the reaction, with two parallel samples set. At 0.5 min, 1 min, 2 min, 5 min, 15 min, and 30 min after the reaction, 50 µL of the mixture was taken and added to centrifuge tubes containing 200 µL of 0°C pre-cooled internal standard working solution to terminate the reaction, vortexed for 1 minute to mix, and centrifuged at 13,000 rpm for 10 minutes in a 4°C pre-cooled high-speed centrifuge. The supernatant was collected for analysis. After the compound was added and vortex-mixed, 50 µL of the mixture was rapidly transferred to a centrifuge tube containing 200 µL of a pre-cooled (0°C) internal standard working solution to terminate the reaction, vortex-mixed for 1 minute, and used as the relative zero-point sample (relative to the standard group). The sample was then placed into a 37°C water bath to initiate the reaction, and timing was started.
The sample analysis of the test compound was performed using the liquid chromatography-tandem mass spectrometry (LCMS/MS) method. The semi-quantitative determination was performed using the ratio of the analyte peak area to the internal standard peak area. The retention times of the analyte and internal standard, chromatogram acquisition, and chromatogram integration were processed using Analyst software.
The in vitro elimination rate constant k of the test compound and the control compound was determined by converting the ratio of the peak area of the test compound to the internal standard into the remaining rate, and T1/2 was then calculated according to the following formula. T1/2 = (Ln2)/(k) = (0.693)/(k) [formula] Table 3. […]

[4] = in vitro liver microsome metabolic stability, human; type: in vitro ADME; settings: Human liver microsomes, 37°C
Method in brief: as §1

human CCR6 = target: T1, human CCR6 (Homo sapiens, UniProt P51684); assay: human CCR6 calcium flux activity (FLIPR, HEK293 cells stably expressing human CCR6, CCL20 stimulation); type: cell-based; settings: HEK293 cells stably expressing human CCR6, EC80 human MIP-3 alpha/CCL20; read-out: CCR6 inhibitory activity, IC50
T1 construct: expressed in transfected cells; host or cells: HEK293
T1 sequence (P51684 1-374): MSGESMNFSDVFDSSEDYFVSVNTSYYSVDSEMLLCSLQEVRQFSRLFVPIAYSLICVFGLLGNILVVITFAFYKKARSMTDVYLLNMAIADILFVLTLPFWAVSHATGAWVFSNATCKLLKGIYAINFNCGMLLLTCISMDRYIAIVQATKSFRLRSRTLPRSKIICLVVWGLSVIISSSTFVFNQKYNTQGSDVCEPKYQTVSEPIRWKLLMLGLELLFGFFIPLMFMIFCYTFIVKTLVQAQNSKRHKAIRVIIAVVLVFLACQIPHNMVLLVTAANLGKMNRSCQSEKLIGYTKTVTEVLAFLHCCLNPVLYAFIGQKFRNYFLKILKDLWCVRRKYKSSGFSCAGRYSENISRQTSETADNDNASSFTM
Method in brief: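 Compounds preincubated with Fluo-4 Direct-loaded cells 50 min at 37 °C, then 10 min at room temperature, before CCL20 challenge at EC80. Fluorescence (ex 494/em 516 nm) recorded 90 s; max−min signal gives inhibition, four-parameter fit yields IC50.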

[5] = in vivo pharmacokinetic study in SD rats; settings: rat; for bioavailability: 1 mg/kg PO vs 1 mg/kg IV, read-out: Oral bioavailability F (%); for AUC(0-t) / Cmax / half-life: 1 mg/kg
Method in brief: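 Male SD rats (180-200 g), 3 per route: single fasted oral gavage in 1% Tween 80 or tail-vein IV bolus in 50% PEG400. Orbital blood into EDTA-K2 sampled to 8 h; plasma analysed and PK parameters derived by non-compartmental analysis.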

SMILES	Liver microsome T1-2 (min) Rat [1] [min]	Liver microsome T1-2 (min) Beagle dog [2] [min]	Liver microsome T1-2 (min) Mouse [3] [min]	Liver microsome T1-2 (min) Human [4] [min]	pIC50 (human CCR6)	further results
Cc1cccnc1[C@@H](Nc1c(Nc2ccnc(C(=O)N(C)C)c2O)c(=O)c1=O)[C@]1(C)CCC(F)(F)C1 (single isomer, unassigned) [125D]	83.07	220.11	19686.4	572.07	–	–
Cc1cc(F)cnc1[C@H](Nc1c(Nc2ccnc(C(=O)N(C)C)c2O)c(=O)c1=O)C1(C)CCCC1 [compound 065, (R)-4-((2-(((5-fluoro-3-methylpyridin-2-yl)(1-methylcyclopentyl)methyl)amino)-3,4-dioxocyclobut-1-en-1-yl)amino)-3-hydroxy-N,N-dimethylpicolinamide]	39.70	200.21	≥120	197.68	8.41	–
CN(C)C(=O)c1nccc(Nc2c(N[C@@H](c3ccccn3)C3(C)CCCC3)c(=O)c2=O)c1O [compound 004, (R)-3-hydroxy-N,N-dimethyl-4-((2-(((1-methylcyclopentyl)(pyridin-2-yl)methyl)amino)-3,4-dioxocyclobut-1-en-1-yl)amino)picolinamide]	90.26	320.98	6368.42	672.88	7.91	–
CN(C)C(=O)c1nccc(Nc2c(N[C@@H](c3cccc(F)n3)C3(C)CCCC3)c(=O)c2=O)c1O [compound 002, (R)-4-((2-(((6-fluoropyridin-2-yl)(1-methylcyclopentyl)methyl)amino)-3,4-dioxocyclobut-1-en-1-yl)amino)-3-hydroxy-N,N-dimethylpicolinamide]	85.28	202.32	1127.82	281.53	8.15	–
CN(C)C(=O)c1nccc(Nc2c(NC(c3nc(F)ccc3F)C3(C)CC(F)(F)CO3)c(=O)c2=O)c1O (stereo not drawn) [compound 062, 4-((2-(((4,4-difluoro-2-methyltetrahydrofuran-2-yl)(3,6-difluoropyridin-2-yl)methyl)amino)-3,4-dioxocyclobut-1-en-1-yl)amino)-3-hydroxy-N,N-dimethylpicolinamide]	801.17	1250.74	228.33	1048.05	7.48	–
CN(C)C(=O)c1nccc(Nc2c(NC(c3nc(Cl)ccc3F)C3(C)CC4CC4C3)c(=O)c2=O)c1O (stereo not drawn) [compound 085, 4-((2-(((6-chloro-3-fluoropyridin-2-yl)(3-methylbicyclo[3.1.0]hexan-3-yl)methyl)amino)-3,4-dioxocyclobut-1-en-1-yl)amino)-3-hydroxy-N,N-dimethylpicolinamide]	56.96	204.66	54.79	226.52	7.42	–
CN(C)C(=O)c1nccc(Nc2c(NC(C#CC3CCC3)C3(C)CC(F)(F)CO3)c(=O)c2=O)c1O (stereo not drawn) [compound 110]	97.61	369.92	1846.01	324.84	–	bioavailability ([5]; in vivo): 60.2%; AUC(0-t) ([5]; in vivo, IV): 739 ng·h/mL; Cmax ([5]; in vivo, IV): 3780 ng/mL; half-life ([5]; in vivo, IV): 17.4 min; AUC(0-t) ([5]; in vivo, PO): 444 ng·h/mL; Cmax ([5]; in vivo, PO): 268 ng/mL; half-life ([5]; in vivo, PO): 57.6 min
CN(C)C(=O)c1nccc(Nc2c(N[C@@H](c3cc(F)cc(F)n3)C3(C)CCCC3)c(=O)c2=O)c1O [compound 022, (R)-4-((2-(((4,6-difluoropyridin-2-yl)(1-methylcyclopentyl)methyl)amino)-3,4-dioxocyclobut-1-en-1-yl)amino)-3-hydroxy-N,N-dimethylpicolinamide]	116.86	271.86	1925.01	271.15	8.13	–
CN(C)C(=O)c1nccc(Nc2c(NC(c3ncccn3)C3(C)CCCC3)c(=O)c2=O)c1O (racemic) [compound 017]	324.15	848.60	1273.80	1176.24	8.00	–
Cc1cccnc1[C@@H](Nc1c(Nc2ccnc(C(=O)N(C)C)c2O)c(=O)c1=O)[C@@]1(C)CCC(F)(F)C1 [125C]	32.18	222.01	550.74	343.09	–	–
CN(C)C(=O)c1nccc(Nc2c(NC(c3nc(F)ccc3F)C3(C)CC4CC4C3)c(=O)c2=O)c1O (stereo not drawn) [compound 126, 4-((2-(((3,6-difluoropyridin-2-yl)(3-methylbicyclo[3.1.0]hexan-3-yl)methyl)amino)-3,4-dioxocyclobut-1-en-1-yl)amino)-3-hydroxy-N,N-dimethylpicolinamide]	58.22	331.52	≥120	531.62	–	bioavailability ([5]; male, plasma): 26.9%; AUC(0-t) ([5]; male, plasma, IV): 1550 ng·h/mL; Cmax ([5]; male, plasma, IV): 3900 ng/mL; AUC(0-t) ([5]; male, plasma, PO): 417 ng·h/mL; Cmax ([5]; male, plasma, PO): 266 ng/mL
